Here are results for 2 molecules from patent US11780821B2, “Inhibitors of fibroblast activation protein” (Praxis Biotech LLC, priority 2017, dated 2023).

Data set [1] addresses T1, recombinant mouse DPPIV (rmDPPIV) (Mus musculus, UniProt P28843).
T1 construct: purchased R&S system (so in the source)
As to the kind of experiment: DPPIV enzymatic activity assay. Format: biochemical. The conditions noted are these: H-Gly-Pro-pNA substrate.

Data set [2] is described as follows: Intravenous and oral bioavailability in mice. Format: in vivo. The method, then:
The pharmacokinetic properties of exemplary test compounds were assayed after administration of an intravenous (IV) 2 mg/kg or oral (PO) 10 mg/kg single dose in mice. Exemplary test compounds were formulated at 0.4 and 1 mg/ml in a vehicle containing Poly-Ethylene Glycol 200 (PEG200; Cat. No. #P3015, Sigma Aldrich) and distilled water (dH2O) (50/50, v/v) as dosing solutions for intravenous and oral administration, respectively.
C57BL/6j and Balb/c mice, approximately 8-10 weeks old, were obtained from the vivarium Fundación Ciencia & Vida Chile (Santiago, Chile) and maintained in a temperature-controlled room with 12/12 hr light/dark schedule with food and water ad libitum. Animals were acclimated for a minimum period of 4 days upon arrival at the testing facility.
On the day of study, mice were weighed and identified by marking the tail with numbers using a non-toxic permanent marker for designation into the experimental groups (n=3 per group). Each mouse in the IV dosing groups received a systemic bolus of 2 mg/kg dosing solution via the caudal vein.
Non-dosed mice were used to collect samples of zero time points. […] Blood samples were centrifuged immediately at 9,000 g at 4° C. for 5 min and the plasma was separated.
The plasma samples were analyzed by QTRAP 4500 triple quadrupole mass spectrometer (Applied Biosystems SCIEX) in positive or negative ion mode depending on the tested compound and interfaced with an ekspert ultraLC 100-XL UPLC System (eksigent) to determine the concentration of the exemplary test compound. […] The precipitated samples were centrifuged at 6,100 g for 30 min at 4° C. Following centrifugation, an aliquot of each supernatant was transferred into a clean sample vial and diluted with two volumes of aqueous mobile phase (0.2% formic acid in water). Samples were injected onto a reverse phase analytical column (YMC Triart C18; 2.0×50 mm; 1.9 μm; YMC CO) and eluted with a gradient of 0.1 or 0.2% formic acid in Acetonitrile. Test compound and internal standard were monitored by a multiple reaction monitoring (MRM) experiment using Analyst software (v1.6.2, Applied Biosystems SCIEX). Quantitation was conducted using MultiQuant software (v2.1, Applied Biosystems SCIEX) and the resulting calibration curve was fitted with a linear or quadratic regression and 1/x weighting.
IV and PO PK parameters were calculated from the concentration-time data using Phoenix WinNonlin software (v6.4, Certara, Princeton, N.J.) by noncompartmental analysis. Area under the concentration-time curve (AUClast) was estimated using a log-linear trapezoidal method, from the dosing time to the last measurable concentration.

Another data set deals with T2, mouse plasma DPPIV (Mus musculus, UniProt P28843).
T2 construct: from tissue; host or cells: mouse plasma (C57BL/6, EDTA)
T2 sequence (P28843 37-760 limits assumed): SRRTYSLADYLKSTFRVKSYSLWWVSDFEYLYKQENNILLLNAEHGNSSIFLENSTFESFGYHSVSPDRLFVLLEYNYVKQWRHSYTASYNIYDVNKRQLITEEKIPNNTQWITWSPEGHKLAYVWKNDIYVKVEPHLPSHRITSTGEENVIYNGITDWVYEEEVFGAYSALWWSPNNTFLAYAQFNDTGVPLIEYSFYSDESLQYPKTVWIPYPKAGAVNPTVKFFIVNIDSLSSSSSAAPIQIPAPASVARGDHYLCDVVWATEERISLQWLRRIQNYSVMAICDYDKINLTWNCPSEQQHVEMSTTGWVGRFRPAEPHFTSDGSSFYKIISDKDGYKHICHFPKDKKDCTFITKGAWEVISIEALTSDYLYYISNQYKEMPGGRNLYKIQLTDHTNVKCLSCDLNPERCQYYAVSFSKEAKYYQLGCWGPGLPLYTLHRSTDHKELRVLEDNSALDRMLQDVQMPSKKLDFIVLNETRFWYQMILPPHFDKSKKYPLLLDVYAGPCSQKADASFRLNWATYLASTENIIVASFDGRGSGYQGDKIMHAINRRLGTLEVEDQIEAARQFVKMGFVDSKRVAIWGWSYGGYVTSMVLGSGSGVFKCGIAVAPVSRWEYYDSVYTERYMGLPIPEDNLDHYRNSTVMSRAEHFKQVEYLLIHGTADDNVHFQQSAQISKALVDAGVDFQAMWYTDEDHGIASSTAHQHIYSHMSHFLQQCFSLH
Description: DPPIV enzymatic activity in mouse plasma. The conditions noted are these: C57BL/6 mouse plasma; H-Gly-Pro-AMC substrate. Format: biochemical. On the procedure: Approximately 500 μL of whole blood from one C57BL/6 mouse was harvested into BD Microtainer® tubes (K2) EDTA (#365974, Becton Dickinson and Co.) via terminal cardiac puncture. The blood sample was immediately centrifuged at approximately 9000 g at 4° C. for 5 minutes. Plasma was separated and stored at −80° C. in aliquots of 300 μL. To assay baseline DPPIV enzymatic exopeptidase activity, 5 μL of thawed, mouse plasma was diluted (1:5) in buffer (100 mM Tris-HCl, 400 mM NaCl, 50 mM salicylic acid, 1 mM EDTA, pH 7.5) and mixed with 35 µL of the same buffer before being pre-incubated with different concentrations of 10 μL of test compounds or DMSO vehicle for 15 minutes at 37° C. in 96-well black plates (Nunc, #237108). After pre-incubation, 50 μL of 200 μM dipeptide substrate H-Gly-Pro-AMC (Bachem, #L-1225) was added to the mixture. The assay was performed for 1 hour at 37° C. 7-Amino-4-Methylcoumarin (AMC) release was detected measuring fluorescence at an excitation wavelength of 360 nm and an emission wavelength of 460 nm using a Multifunction Microplate Reader (Synergy 4, Biotek). All measurements were carried out at least in duplicate.

The target in data set [3] is T3, recombinant human FAPα (rhFAPα) (Homo sapiens, UniProt Q12884).
T3 construct: purchased R&S system (so in the source)
T3 sequence (Q12884 1-760): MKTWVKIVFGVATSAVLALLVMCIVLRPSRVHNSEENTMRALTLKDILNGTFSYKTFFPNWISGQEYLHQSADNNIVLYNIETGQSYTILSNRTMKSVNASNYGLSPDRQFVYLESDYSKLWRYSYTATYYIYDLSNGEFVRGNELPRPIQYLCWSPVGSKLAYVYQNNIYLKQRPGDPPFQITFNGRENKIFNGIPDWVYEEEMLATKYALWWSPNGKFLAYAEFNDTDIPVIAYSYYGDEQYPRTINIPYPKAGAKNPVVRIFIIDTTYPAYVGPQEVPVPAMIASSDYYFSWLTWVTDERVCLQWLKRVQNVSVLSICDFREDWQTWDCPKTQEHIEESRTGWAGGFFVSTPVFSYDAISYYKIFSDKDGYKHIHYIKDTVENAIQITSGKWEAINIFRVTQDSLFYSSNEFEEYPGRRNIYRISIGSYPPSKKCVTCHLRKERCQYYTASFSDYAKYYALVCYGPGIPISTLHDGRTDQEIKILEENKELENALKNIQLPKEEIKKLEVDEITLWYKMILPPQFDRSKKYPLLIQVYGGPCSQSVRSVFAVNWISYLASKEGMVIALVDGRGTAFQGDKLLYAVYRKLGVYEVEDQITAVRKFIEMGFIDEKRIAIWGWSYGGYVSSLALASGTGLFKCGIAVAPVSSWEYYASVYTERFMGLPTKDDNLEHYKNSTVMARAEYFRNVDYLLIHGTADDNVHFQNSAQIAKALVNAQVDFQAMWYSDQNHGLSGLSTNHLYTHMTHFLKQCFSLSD
As to the kind of experiment: FAPα enzymatic exopeptidase (dipeptidase) activity assay. The note with it: 1 μM test compound; Z-Gly-Pro-AMC substrate. It counts as biochemical.

Data set [4] addresses T4, recombinant mouse FAPα (rmFAPα) (Mus musculus, UniProt P97321).
T4 construct: purchased R&S system (so in the source)
T4 sequence (P97321 1-761): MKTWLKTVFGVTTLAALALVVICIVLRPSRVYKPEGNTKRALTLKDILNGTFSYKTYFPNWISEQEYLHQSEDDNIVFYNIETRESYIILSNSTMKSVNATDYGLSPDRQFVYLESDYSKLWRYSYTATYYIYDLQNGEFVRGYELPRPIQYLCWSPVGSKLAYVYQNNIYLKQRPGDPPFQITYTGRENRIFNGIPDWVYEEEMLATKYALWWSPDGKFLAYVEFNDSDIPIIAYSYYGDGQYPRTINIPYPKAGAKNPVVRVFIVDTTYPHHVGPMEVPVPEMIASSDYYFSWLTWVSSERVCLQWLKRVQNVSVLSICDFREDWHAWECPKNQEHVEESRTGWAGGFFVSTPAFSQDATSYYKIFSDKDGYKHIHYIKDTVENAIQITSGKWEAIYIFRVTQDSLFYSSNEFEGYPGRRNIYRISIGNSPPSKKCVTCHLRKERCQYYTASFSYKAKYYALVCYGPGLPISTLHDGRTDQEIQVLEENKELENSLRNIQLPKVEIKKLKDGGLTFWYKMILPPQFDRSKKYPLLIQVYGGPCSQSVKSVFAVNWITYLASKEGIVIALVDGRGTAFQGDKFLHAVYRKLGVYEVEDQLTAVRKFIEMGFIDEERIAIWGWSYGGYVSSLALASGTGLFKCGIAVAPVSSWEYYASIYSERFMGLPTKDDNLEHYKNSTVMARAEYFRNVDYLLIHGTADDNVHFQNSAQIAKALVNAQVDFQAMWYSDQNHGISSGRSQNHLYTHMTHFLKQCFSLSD
The description is as above. The note with it: 1 μM test compound; Z-Gly-Pro-AMC substrate. Format: biochemical. The method, then: FAPα enzymatic exopeptidase (dipeptidase) activity assay. […] 7-Amino-4-Methylcoumarin (AMC) release was detected by measuring fluorescence at Ex/Em 380/460 nm using a Multifunction Microplate Reader (Synergy 4, Biotek). All measurements were carried out in duplicate. […] For the calculations, the average measurements from reactions containing only vehicle and substrate, without enzyme, were used as a blank and were subtracted from the rest of the measurements. Percent inhibition was calculated using the average measurements from reactions containing vehicle, enzyme, and substrate as the maximum of enzymatic activity. Measurements were performed as a single point.

Data set [5] concerns the target T5, recombinant mouse PREP (rmPREP) (Mus musculus, UniProt Q9QUR6).
T5 construct: purchased R&S system (so in the source)
Description: PREP enzymatic activity assay. Format: biochemical. The note with it: Z-Gly-Pro-AMC substrate. The method, then:
7-Amino-4-Methylcoumarin (AMC) release was detected by measuring fluorescence at Ex/Em 380/460 nm using a Multifunction Microplate Reader (Synergy 4, Biotek). All measurements were carried out in triplicate.

The conditions of data set [6]: standing in pH 7.8; cyclization; cited from earlier work.
In another data set the test system is a variety of cancers. The conditions noted are these: Phase II, combination with standard cytotoxic chemotherapy; cited from earlier work.

As usually defined, the IC50 is the midpoint of a concentration-inhibition curve.

T5 sequence (Q9QUR6 whole entry): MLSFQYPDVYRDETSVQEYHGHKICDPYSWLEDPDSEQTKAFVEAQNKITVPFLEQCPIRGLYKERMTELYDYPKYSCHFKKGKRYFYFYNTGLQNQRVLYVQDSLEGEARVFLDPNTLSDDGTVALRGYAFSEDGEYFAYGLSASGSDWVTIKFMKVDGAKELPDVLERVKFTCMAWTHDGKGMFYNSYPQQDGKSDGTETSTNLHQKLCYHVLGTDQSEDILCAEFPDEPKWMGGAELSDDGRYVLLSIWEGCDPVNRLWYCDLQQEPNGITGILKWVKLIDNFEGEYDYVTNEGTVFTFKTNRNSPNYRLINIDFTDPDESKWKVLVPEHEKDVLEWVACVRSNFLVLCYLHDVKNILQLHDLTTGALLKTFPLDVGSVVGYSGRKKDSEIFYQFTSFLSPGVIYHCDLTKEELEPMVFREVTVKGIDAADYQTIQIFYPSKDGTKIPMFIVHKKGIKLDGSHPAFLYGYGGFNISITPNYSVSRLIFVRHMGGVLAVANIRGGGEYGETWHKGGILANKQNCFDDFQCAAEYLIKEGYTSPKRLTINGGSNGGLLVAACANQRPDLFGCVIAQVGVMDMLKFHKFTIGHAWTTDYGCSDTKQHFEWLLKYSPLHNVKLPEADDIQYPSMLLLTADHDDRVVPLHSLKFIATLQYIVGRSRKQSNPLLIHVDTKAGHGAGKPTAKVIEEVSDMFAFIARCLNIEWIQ
T1 sequence (P28843 whole entry): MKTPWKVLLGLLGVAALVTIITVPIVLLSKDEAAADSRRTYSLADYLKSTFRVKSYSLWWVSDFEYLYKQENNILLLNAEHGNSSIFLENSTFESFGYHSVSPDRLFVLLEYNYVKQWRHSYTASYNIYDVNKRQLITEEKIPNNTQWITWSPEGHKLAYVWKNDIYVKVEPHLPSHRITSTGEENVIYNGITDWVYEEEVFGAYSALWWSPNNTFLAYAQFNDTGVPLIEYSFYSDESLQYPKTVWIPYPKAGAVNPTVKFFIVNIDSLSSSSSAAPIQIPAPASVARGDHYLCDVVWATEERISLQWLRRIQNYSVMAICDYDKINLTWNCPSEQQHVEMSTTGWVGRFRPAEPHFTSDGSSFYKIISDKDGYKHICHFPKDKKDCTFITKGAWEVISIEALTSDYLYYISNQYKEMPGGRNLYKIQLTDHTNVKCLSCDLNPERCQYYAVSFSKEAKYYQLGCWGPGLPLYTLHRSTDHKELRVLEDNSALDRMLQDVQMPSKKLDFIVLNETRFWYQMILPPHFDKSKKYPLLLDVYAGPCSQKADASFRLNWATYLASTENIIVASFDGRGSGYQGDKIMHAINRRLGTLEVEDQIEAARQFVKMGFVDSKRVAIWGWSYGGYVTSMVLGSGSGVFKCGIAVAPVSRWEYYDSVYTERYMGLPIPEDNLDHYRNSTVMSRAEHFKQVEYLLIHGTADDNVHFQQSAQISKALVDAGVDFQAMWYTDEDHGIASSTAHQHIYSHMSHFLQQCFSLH

Consider `N#CC1CC(F)(F)CN1C(=O)CNC(=O)c1ccnc2ccccc12` (stereo not drawn) [Ref. Comp., reference compound], for which the IC50 (in data set [1]; on mouse plasma DPPIV; in data set [5]) was above 10 µM throughout. For the same molecule, the “F (bioavailability)” value in data set [2] (PO 10 mg/kg vs IV 2 mg/kg) was 39.7%. Besides, the AUClast in data set [2] (oral (PO) 10 mg/kg single dose, plasma) was found to be 1120 ng·h/mL. In addition, the “rhFAPα (% exo inh @ 1 μM)” value in data set [3] is “+++ (+++ refers to > 50% inhibition at 1 μM test compound)”. The “rmFAPα (% exo inh @ 1 μM)” value in data set [4] was “+++ (+++ refers to > 50% inhibition at 1 μM test compound)”.

Take `CC(C)[C@H](N)C(=O)N1CCC[C@H]1B(O)O` [Val-boroPro]: in data set [6], the “stability of protease inhibitory activity” value was “rapidly loses protease inhibitory activity”. In addition, the clinical efficacy endpoints result in the data set on a variety of cancers is “endpoints for efficacy were not met”.
